Values after ≈ are worked out from the molar mass of the structure shown.
What was measured:
Type in all cases: cell-based
[1] = test system: Streptococcus pneumoniae 1016; assay: MIC, microtiter broth dilution (NCCLS M100-S14), S. pneumoniae 1016 (susceptible); settings: S. pneumoniae 1016 (susceptible)
Method in brief: (§1)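 Compounds were first dissolved in DMSO (40 mg/ml stock), then tested by broth dilution in microtiter trays. MICs were interpreted using the 14th Informational Supplement (M100-S14) criteria.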

[2] = test system: Streptococcus pneumoniae 1095; settings: S. pneumoniae 1095 (ermB); microtiter broth dilution
Method in brief: as §1

[3] = test system: Streptococcus pneumoniae 1175; settings: S. pneumoniae 1175 (mefA); microtiter broth dilution
Method in brief: as §1

[4] = test system: Streptococcus pyogenes 1079; assay: MIC, microtiter broth dilution (NCCLS M100-S14), S. pyogenes 1079 (ermB); settings: S. pyogenes 1079 (ermB)
Method in brief: as §1

[5] = test system: Haemophilus influenzae 1218; assay: MIC, microtiter broth dilution (NCCLS M100-S14), H. influenzae 1218 (susceptible); settings: H. influenzae 1218 (susceptible)
Method in brief: as §1

Row | SMILES | MIC S. pneumo. 1016 [1] [µg/mL] | MIC S. pneumo. 1095 [2] [µg/mL] | MIC S. pneumo. 1175 [3] [µg/mL] | MIC S. pyogenes 1079 [4] [µg/mL] | MIC H. influenzae 1218 [5] [µg/mL]
1 | CCC1OC(=O)C(C)C(=O)C(C)C(OC2OC(C)CC(N(C)C)C2O)C(C)(OC)CC(C)C(=O)C(C)C2N(CC3CCCN3C(=O)c3cccc4[nH]cnc34)C(=O)OC12C (centres unmarked) [10.52] | <0.06 | <0.06 | <0.06 | 64 (≈ 76.2 µM) | 0.25 (≈ 0.298 µM)
2 | CCC1OC(=O)C(C)C(=O)C(C)C(OC2OC(C)CC(N(C)C)C2O)C(C)(OC)CC(C)C(=O)C(C)C2N(CC3CCCN3C(=O)c3cc4ncccn4n3)C(=O)OC12C (centres unmarked) [10.53] | <0.06 | <0.06 | 0.12 (≈ 0.143 µM) | >64.00 | 1 (≈ 1.19 µM)
3 | CCC1OC(=O)C(C)C(=O)C(C)C(OC2OC(C)CC(N(C)C)C2O)C(C)(OC)CC(C)C(=O)C(C)C2N(CC3CCCN3C(=O)c3cn4ccccc4n3)C(=O)OC12C (centres unmarked) [10.54] | <0.06 | <0.06 | 0.25 (≈ 0.298 µM) | 64 (≈ 76.2 µM) | 1 (≈ 1.19 µM)
4 | CCC1OC(=O)C(C)C(=O)C(C)C(OC2OC(C)CC(N(C)C)C2O)C(C)(OC)CC(C)C(=O)C(C)C2N(CC3CCCN3C(=O)c3cc4cccnc4[nH]3)C(=O)OC12C (centres unmarked) [10.55] | <0.06 | <0.06 | <0.06 | 32 (≈ 38.1 µM) | 1 (≈ 1.19 µM)
5 | CCC1OC(=O)C(C)C(=O)C(C)C(OC2OC(C)CC(N(C)C)C2O)C(C)(OC)CC(C)C(=O)C(C)C2N(CC3CCN(Cc4cnc5ccccc5c4)C3)C(=O)OC12C (centres unmarked) [11.03] | <0.06 | <0.06 | 0.5 (≈ 0.597 µM) | 64 (≈ 76.5 µM) | 2 (≈ 2.39 µM)
6 | CCC1OC(=O)C(C)C(=O)C(C)C(OC2OC(C)CC(N(C)C)C2O)C(C)(OC)CC(C)C(=O)C(C)C2N(CC3CCN(Cc4ccc5ccccc5n4)C3)C(=O)OC12C (centres unmarked) [11.04] | <0.06 | <0.06 | 0.12 (≈ 0.143 µM) | 64 (≈ 76.5 µM) | 1 (≈ 1.19 µM)
7 | CCC1OC(=O)C(C)C(=O)C(C)C(OC2OC(C)CC(N(C)C)C2O)C(C)(OC)CC(C)C(=O)C(C)C2N(CC3CCN(Cc4nc5ccccc5n4C)C3)C(=O)OC12C (centres unmarked) [11.06] | <0.06 | 2 (≈ 2.38 µM) | 2 (≈ 2.38 µM) | >64.00 | 4 (≈ 4.76 µM)
8 | CCC1OC(=O)C(C)C(=O)C(C)C(OC2OC(C)CC(N(C)C)C2O)C(C)(OC)CC(C)C(=O)C(C)C2N(CC3CCN(Cc4ccc(OC)nc4)C3)C(=O)OC12C (centres unmarked) [11.07] | <0.06 | <0.06 | 0.25 (≈ 0.306 µM) | 16 (≈ 19.6 µM) | 1 (≈ 1.22 µM)
9 | CCC1OC(=O)C(C)C(=O)C(C)C(OC2OC(C)CC(N(C)C)C2O)C(C)(OC)CC(C)C(=O)C(C)C2N(CC3CCN(Cc4cccc(OC)n4)C3)C(=O)OC12C (centres unmarked) [11.08] | <0.06 | <0.06 | 0.25 (≈ 0.306 µM) | >64.00 | 0.5 (≈ 0.612 µM)
10 | CCC1OC(=O)C(C)C(=O)C(C)C(OC2OC(C)CC(N(C)C)C2O)C(C)(OC)CC(C)C(=O)C(C)C2N(CC3CCN(Cc4cccnc4OC)C3)C(=O)OC12C (centres unmarked) [11.09] | <0.06 | 4 (≈ 4.9 µM) | 16 (≈ 19.6 µM) | >64.00 | 4 (≈ 4.9 µM)
11 | CCC1OC(=O)C(C)C(=O)C(C)C(OC2OC(C)CC(N(C)C)C2O)C(C)(OC)CC(C)C(=O)C(C)C2N(CC3CCN(Cc4nccc5ccccc45)C3)C(=O)OC12C (centres unmarked) [11.10] | <0.06 | <0.06 | <0.06 | 64 (≈ 76.5 µM) | 0.12 (≈ 0.143 µM)
12 | CCC1OC(=O)C(C)C(=O)C(C)C(OC2OC(C)CC(N(C)C)C2O)C(C)(OC)CC(C)C(=O)C(C)C2N(CC3CCN(Cc4cnn(-c5ccccn5)c4)C3)C(=O)OC12C (centres unmarked) [11.14] | <0.06 | 0.25 (≈ 0.293 µM) | 0.25 (≈ 0.293 µM) | 32 (≈ 37.5 µM) | 2 (≈ 2.34 µM)
13 | CCC1OC(=O)C(C)C(=O)C(C)C(OC2OC(C)CC(N(C)C)C2O)C(C)(OC)CC(C)C(=O)C(C)C2N(CC3CCN(Cc4cnn(-c5cccnc5)c4)C3)C(=O)OC12C (centres unmarked) [11.15] | <0.06 | <0.06 | 0.5 (≈ 0.586 µM) | 64 (≈ 75 µM) | 2 (≈ 2.34 µM)
14 | CCC1OC(=O)C(C)C(=O)C(C)C(OC2OC(C)CC(N(C)C)C2O)C(C)(OC)CC(C)C(=O)C(C)C2N(CC3CCN(C(=O)c4cc5ccccn5n4)C3)C(=O)OC12C (centres unmarked) [11.16] | <0.06 | 8 (≈ 9.52 µM) | 0.5 (≈ 0.595 µM) | >64.00 | 8 (≈ 9.52 µM)
15 | CCC1OC(=O)C(C)C(=O)C(C)C(OC2OC(C)CC(N(C)C)C2O)C(C)(OC)CC(C)C(=O)C(C)C2N(CC3CCN(C(=O)c4cnc5ccccc5c4)C3)C(=O)OC12C (centres unmarked) [11.17] | <0.06 | 8 (≈ 9.4 µM) | 2 (≈ 2.35 µM) | >64.00 | 4 (≈ 4.7 µM)
16 | CCC1OC(=O)C(C)C(=O)C(C)C(OC2OC(C)CC(N(C)C)C2O)C(C)(OC)CC(C)C(=O)C(C)C2N(CC3CCN(C(=O)c4ccc5ncccc5c4)C3)C(=O)OC12C (centres unmarked) [11.18] | <0.06 | 8 (≈ 9.4 µM) | 2 (≈ 2.35 µM) | >64.00 | 2 (≈ 2.35 µM)
17 | CCC1OC(=O)C(C)C(=O)C(C)C(OC2OC(C)CC(N(C)C)C2O)C(C)(OC)CC(C)C(=O)C(C)C2N(CC3CCCN3Cc3cccc(OC)n3)C(=O)OC12C (centres unmarked) [12.01] | <0.06 | 2 (≈ 2.45 µM) | 1 (≈ 1.22 µM) | >64.00 | 8 (≈ 9.79 µM)
18 | CCC1OC(=O)C(C)C(=O)C(C)C(OC2OC(C)CC(N(C)C)C2O)C(C)(OC)CC(C)C(=O)C(C)C2N(CC3CCCN3Cc3cccnc3OC)C(=O)OC12C (centres unmarked) [12.02] | <0.06 | 8 (≈ 9.79 µM) | 8 (≈ 9.79 µM) | >64.00 | 16 (≈ 19.6 µM)
19 | CCC1OC(=O)C(C)C(=O)C(C)C(OC2OC(C)CC(N(C)C)C2O)C(C)(OC)CC(C)C(=O)C(C)C2N(CC3CCCN3Cc3ccc(OC)nc3)C(=O)OC12C (centres unmarked) [12.03] | <0.06 | >64.00 | 0.5 (≈ 0.612 µM) | >64.00 | 4 (≈ 4.9 µM)
20 | CCC1OC(=O)C(C)C(=O)C(C)C(OC2OC(C)CC(N(C)C)C2O)C(C)(OC)CC(C)C(=O)C(C)C2N(CC3CCCN3Cc3ccno3)C(=O)OC12C (centres unmarked) [12.04] | <0.06 | 4 (≈ 5.15 µM) | 1 (≈ 1.29 µM) | >64.00 | 2 (≈ 2.57 µM)
21 | CCC1OC(=O)C(C)C(=O)C(C)C(OC2OC(C)CC(N(C)C)C2O)C(C)(OC)CC(C)C(=O)C(C)C2N(CC3CCCN3C(=O)c3cnc4ccccc4c3)C(=O)OC12C (centres unmarked) [12.05] | <0.06 | 1 (≈ 1.18 µM) | 1 (≈ 1.18 µM) | >64.00 | 4 (≈ 4.7 µM)
22 | CCC1OC(=O)C(C)C(=O)C(C)C(OC2OC(C)CC(N(C)C)C2O)C(C)(OC)CC(C)C(=O)C(C)C2N(CC3CCCN3C(=O)c3ccc4ncccc4c3)C(=O)OC12C (centres unmarked) [12.06] | <0.06 | 0.25 (≈ 0.294 µM) | 1 (≈ 1.18 µM) | >64.00 | 2 (≈ 2.35 µM)

— patent US7462600B2, “Macrolides” (Pfizer Inc, priority 2004, dated 2008)
